Measured values taken from the supplement of paper PMC13380429.

What was measured:
Conditions in all cases: 72 h
Vero E6 [1] = experiment: drug sensitivity score (DSS) for viability; higher = more toxic; extreme values may be limits of the assay
Calu-3 [2] = experiment: as above
HepG2 [3] = experiment: as above
Caco-2 [4] = experiment: as above
Vero E6 [5] = experiment: cell viability relative to DMSO; higher = less toxic
Calu-3 [6] = experiment: as above
HepG2 [7] = experiment: as above
Caco-2 [8] = experiment: as above
Vero E6 [9] = experiment: relative viability EC50 (midpoint between 100% and the lowest measured viability); higher = less toxic
Calu-3 [10] = experiment: as above
HepG2 [11] = experiment: as above
Caco-2 [12] = experiment: as above
U2OS [13] = experiment: drug sensitivity score (DSS) for viability; higher = more toxic; extreme values may be limits of the assay
U2OS [14] = experiment: cell viability relative to DMSO; higher = less toxic
U2OS [15] = experiment: relative viability EC50 (midpoint between 100% and the lowest measured viability); higher = less toxic

Structure (SMILES)	drug sensitivity score (Vero E6 [1])	drug sensitivity score (Calu-3 [2])	drug sensitivity score (HepG2 [3])	drug sensitivity score (Caco-2 [4])	cell viability (Vero E6 [5]; 1 nM) [%]	cell viability (Vero E6 [5]; 10 nM) [%]	cell viability (Vero E6 [5]; 100 nM) [%]	cell viability (Vero E6 [5]; 1000 nM) [%]	cell viability (Vero E6 [5]; 10000 nM) [%]	cell viability (Calu-3 [6]; 1 nM) [%]	cell viability (Calu-3 [6]; 10 nM) [%]	cell viability (Calu-3 [6]; 100 nM) [%]	cell viability (Calu-3 [6]; 1000 nM) [%]	cell viability (Calu-3 [6]; 10000 nM) [%]	cell viability (HepG2 [7]; 1 nM) [%]	cell viability (HepG2 [7]; 10 nM) [%]	cell viability (HepG2 [7]; 100 nM) [%]	cell viability (HepG2 [7]; 1000 nM) [%]	cell viability (HepG2 [7]; 10000 nM) [%]	cell viability (Caco-2 [8]; 1 nM) [%]	cell viability (Caco-2 [8]; 10 nM) [%]	cell viability (Caco-2 [8]; 100 nM) [%]	cell viability (Caco-2 [8]; 1000 nM) [%]	cell viability (Caco-2 [8]; 10000 nM) [%]	relative viability EC50 (Vero E6 [9]) [µM]	relative viability EC50 (Calu-3 [10]) [µM]	relative viability EC50 (HepG2 [11]) [µM]	relative viability EC50 (Caco-2 [12]) [µM]	drug sensitivity score (U2OS [13])	cell viability (U2OS [14]; 1 nM) [%]	cell viability (U2OS [14]; 10 nM) [%]	cell viability (U2OS [14]; 100 nM) [%]	cell viability (U2OS [14]; 1000 nM) [%]	cell viability (U2OS [14]; 10000 nM) [%]	relative viability EC50 (U2OS [15]) [µM]
CCOCc1cc(OC)c(-c2ccc(C[C@H](NC(=O)c3c(F)cccc3F)C(=O)O)cc2)c(OC)c1 [firategrast]	0	0	0	0	96.3	101	98.5	101	98	103	94.1	86.4	99.7	98.5	104	105	90.3	99.3	96.6	99.3	94.6	104	93.9	101	> 10	> 10	> 10	> 10	–	–	–	–	–	–	–
CN(c1ncccc1CNc1nc(Nc2ccc3c(c2)CC(=O)N3)ncc1C(F)(F)F)S(C)(=O)=O	5.1	2.8	9	3.9	98.5	101	87.8	83.9	41.5	108	104	100	108	39.5	108	113	108	74.1	7.9	105	111	107	91.5	53.1	1.64	3.74	1.46	–	–	–	–	–	–	–	–
O=S(=O)(N[C@H]1CC[C@@](c2cc(F)ccc2F)(S(=O)(=O)c2ccc(Cl)cc2)CC1)C(F)(F)F [MRK-560]	–	0	2.1	0	–	–	–	–	–	96.2	91.2	104	97.7	102	98.5	91.2	106	81.5	86.4	88.8	99.1	94.5	94.7	95.6	–	> 10	> 10	> 10	0	99.9	102	100	101	95.9	> 10
O=C(O)C(Cl)Cl [dichloroacetate]	0	–	0	0	104	96.3	96.1	104	96	–	–	–	–	–	111	104	110	93.2	102	102	106	116	97.3	98.6	> 10	–	> 10	> 10	0	104	96.2	97.4	96	99.6	> 10
Cc1nc[nH]c1CCN [4-methylhistamine]	–	0	0	0	–	–	–	–	–	89.5	101	107	88	99.2	98.1	98.6	88.5	96.2	91.9	91.9	95.1	99.2	100	101	–	> 10	> 10	> 10	0	95.1	99.5	104	98	104	> 10
CC[C@H](CC#N)OC(=O)N[C@@H](C)c1cccc(NC(=O)Nc2ccc(-c3cnco3)c(OC)c2)c1 [AVN-944]	8	9.1	11.5	9.1	97.8	108	103	67.6	30.2	97.6	92.9	88.7	57.3	58.2	89	106	101	37.6	29	102	94.1	93.6	54.8	48	1.06	–	0.464	0.319	10.7	105	101	102	45.2	22.2	0.707
